Tests used:
Details in all cases: 48 h
P12-Ichikawa [1] = experiment: AUC of viability dose-response curve (% viability x log10 dose units); higher = less sensitive
Procedure, shortened: (§1)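 Leukemia cells adapted to each medium were seeded in 1536-well plates (500 or 1000 cells/well) and given library compounds in DMSO for 48 h at 37°C. The 11 threefold doses spanned 47 μM to 0.79 nM, and CellTiter-Glo One luminescence was normalised per plate to DMSO and cell-free wells before four-parameter log-logistic fitting on log10 dose. Area under the curve was integrated with the trapezoidal rule, scaling curves above full viability and removing curves that failed quality control.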

NOMO1 [2] = experiment: as above
Procedure, shortened: as §1

P12-Ichikawa [3] = experiment: cell viability relative to DMSO control; higher = less cytotoxic
Procedure, shortened: (§2)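 Leukemia cells (NOMO1 or SEM, 500 cells/well; P12-Ichikawa, 1000 cells/well) were seeded in 5 μl in 1536-well plates after at least four passages of adaptation to each medium. They received library compounds in DMSO by pin dosing, 11 threefold points from 47 μM to 0.79 nM. Luminescence with CellTiter-Glo One was read after 48 h at 37°C. Viability is stated per plate relative to DMSO wells, with cell-free wells as background.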

SEM cells [4] = experiment: as above
Procedure, shortened: as §2

NOMO1 [5] = experiment: as above
Procedure, shortened: as §2

SEM cells [6] = experiment: AUC of viability dose-response curve (% viability x log10 dose units); higher = less sensitive
Procedure, shortened: as §1

CCCc1nc(C(C)(C)O)c(C(=O)O)n1Cc1ccc(-c2ccccc2-c2nn[nH]n2)cc1
AUC of viability dose-response curve
Details | HPLM + 10% dialyzed FBS | RPMI 5 mM glucose + 10% FBS | RPMI 5 mM glucose + 10% dialyzed FBS
NOMO1 [2] | 439 | 454 | 461
P12-Ichikawa [1] | 448 | 452 | 413

cell viability [%]
Details | NOMO1 [5] | P12-Ichikawa [3] | SEM cells [4]
HPLM + 10% dialyzed FBS, 0.000781 µM | 97.7 | 111 | 104
HPLM + 10% dialyzed FBS, 0.00234 µM | 111 | 115 | 116
HPLM + 10% dialyzed FBS, 0.00702 µM | 107 | 112 | 97.3
HPLM + 10% dialyzed FBS, 0.0211 µM | 114 | 117 | 112
HPLM + 10% dialyzed FBS, 0.0632 µM | 119 | 115 | 119
HPLM + 10% dialyzed FBS, 0.19 µM | 120 | 125 | 116
HPLM + 10% dialyzed FBS, 0.569 µM | 149 | 120 | 58.6
HPLM + 10% dialyzed FBS, 1.71 µM | 115 | 119 | 60
HPLM + 10% dialyzed FBS, 5.12 µM | 113 | 122 | 118
HPLM + 10% dialyzed FBS, 15.4 µM | 119 | 125 | 120
HPLM + 10% dialyzed FBS, 46.1 µM | 126 | 128 | 110
RPMI 5 mM glucose + 10% FBS, 0.000781 µM | 107 | 109 | 76.4
RPMI 5 mM glucose + 10% FBS, 0.00234 µM | 103 | 114 | 88.1
RPMI 5 mM glucose + 10% FBS, 0.00702 µM | 105 | 102 | 69.3
RPMI 5 mM glucose + 10% FBS, 0.0211 µM | 110 | 110 | 76.7
RPMI 5 mM glucose + 10% FBS, 0.0632 µM | 105 | 116 | 84.5
RPMI 5 mM glucose + 10% FBS, 0.19 µM | 125 | 130 | 76.5
RPMI 5 mM glucose + 10% FBS, 0.569 µM | 123 | 124 | 69
RPMI 5 mM glucose + 10% FBS, 1.71 µM | 113 | 123 | 46.8
RPMI 5 mM glucose + 10% FBS, 5.12 µM | 112 | 126 | 79.2
RPMI 5 mM glucose + 10% FBS, 15.4 µM | 114 | 138 | 82.6
RPMI 5 mM glucose + 10% FBS, 46.1 µM | 124 | 109 | 62.3
RPMI 5 mM glucose + 10% dialyzed FBS, 0.000781 µM | 106 | 103 | 96
RPMI 5 mM glucose + 10% dialyzed FBS, 0.00234 µM | 104 | 70.5 | 104
RPMI 5 mM glucose + 10% dialyzed FBS, 0.00702 µM | 115 | 107 | 109
RPMI 5 mM glucose + 10% dialyzed FBS, 0.0211 µM | 116 | 107 | 98.5
RPMI 5 mM glucose + 10% dialyzed FBS, 0.0632 µM | 114 | 117 | 104
RPMI 5 mM glucose + 10% dialyzed FBS, 0.19 µM | 117 | 118 | 109
RPMI 5 mM glucose + 10% dialyzed FBS, 0.569 µM | 124 | 116 | 90.3
RPMI 5 mM glucose + 10% dialyzed FBS, 1.71 µM | 113 | 117 | 56
RPMI 5 mM glucose + 10% dialyzed FBS, 5.12 µM | 128 | 118 | 103
RPMI 5 mM glucose + 10% dialyzed FBS, 15.4 µM | 126 | 128 | 105
RPMI 5 mM glucose + 10% dialyzed FBS, 46.1 µM | 112 | 135 | 103

CC(=O)O[C@H]1C[C@@H]2CC[C@@H]3[C@H](CC[C@@]4(C)[C@H]3C[C@H]([N+]3(C)CCCCC3)[C@@H]4OC(C)=O)[C@@]2(C)C[C@@H]1[N+]1(C)CCCCC1
AUC of viability dose-response curve
Details | NOMO1 [2] | P12-Ichikawa [1] | SEM cells [6]
HPLM + 10% dialyzed FBS | 459 | 464 | 477
RPMI 5 mM glucose + 10% FBS | 466 | 457 | 438
RPMI 5 mM glucose + 10% dialyzed FBS | 472 | 465 | 465

Details | cell viability [%]
P12-Ichikawa [3], RPMI 5 mM glucose + 10% dialyzed FBS, 0.000781 µM | 123
P12-Ichikawa [3], RPMI 5 mM glucose + 10% dialyzed FBS, 0.00234 µM | 134
P12-Ichikawa [3], RPMI 5 mM glucose + 10% dialyzed FBS, 0.00702 µM | 121
P12-Ichikawa [3], RPMI 5 mM glucose + 10% dialyzed FBS, 0.0211 µM | 124
P12-Ichikawa [3], RPMI 5 mM glucose + 10% dialyzed FBS, 0.0632 µM | 132
P12-Ichikawa [3], RPMI 5 mM glucose + 10% dialyzed FBS, 0.19 µM | 125
P12-Ichikawa [3], RPMI 5 mM glucose + 10% dialyzed FBS, 0.569 µM | 127
P12-Ichikawa [3], RPMI 5 mM glucose + 10% dialyzed FBS, 1.71 µM | 117
P12-Ichikawa [3], RPMI 5 mM glucose + 10% dialyzed FBS, 5.12 µM | 125
P12-Ichikawa [3], RPMI 5 mM glucose + 10% dialyzed FBS, 15.4 µM | 117
P12-Ichikawa [3], RPMI 5 mM glucose + 10% dialyzed FBS, 46.1 µM | 113
SEM cells [4], HPLM + 10% dialyzed FBS, 0.000781 µM | 110
SEM cells [4], HPLM + 10% dialyzed FBS, 0.00234 µM | 110
SEM cells [4], HPLM + 10% dialyzed FBS, 0.00702 µM | 119
SEM cells [4], HPLM + 10% dialyzed FBS, 0.0211 µM | 126
SEM cells [4], HPLM + 10% dialyzed FBS, 0.0632 µM | 108
SEM cells [4], HPLM + 10% dialyzed FBS, 0.19 µM | 108
SEM cells [4], HPLM + 10% dialyzed FBS, 0.569 µM | 115
SEM cells [4], HPLM + 10% dialyzed FBS, 1.71 µM | 121
SEM cells [4], HPLM + 10% dialyzed FBS, 5.12 µM | 109
SEM cells [4], HPLM + 10% dialyzed FBS, 15.4 µM | 110
SEM cells [4], HPLM + 10% dialyzed FBS, 46.1 µM | 117
